≈ marks a conversion by molar mass, not a printed value. Numbered stars: 1 amine (or outer) side, 2 acyl side, 3 side chain; on linkers, the order of the positions; unused ones are H or OH. Bridge positions count the residues as written; N and C are the ends. Square brackets hold non-standard residues; d marks the D form. Peptide text beside a SMILES is read from it. * marks the point of attachment. X3 = O=C([C@@H](Cc1ccc(CS(=O)(=O)O)cc1)N[*:1])[*:2]; Heptanoyl(6-Me) = CC(C)CCCCC(=O)*; dOrn = NCCC[C@@H](N)C(=O)O; Nonanoyl = CCCCCCCCC(=O)*; X1 = CC[C@H](C)CCCCC(=O)*; Heptanoyl = CCCCCCC(=O)*; Orn = NCCC[C@H](N)C(=O)O; Dab = NCC[C@H](N)C(=O)O
Experiments:
Assay type in all cases: cell-based
[1] = tested on: Acinetobacter baumannii NCTC 13304 (OXA-27); settings: NCTC 13304
Method: (§1) The minimal inhibitory concentration (MIC) was determined by the broth microdilution method according to the recommended procedures of the Clinical and Laboratory Standards Institute (CLSI).
(§2) An appropriate amount of the cyclic lipopeptide compounds prepared in Examples 1-120 and the reference standards were weighed and dissolved in sterile pure water. An appropriate volume of the mother solution was subjected to ten-fold dilution with sterile Mueller-Hinton (MH) broth to a concentration of 0.256 mg/mL. Half of the drug solution was aliquoted into 96-well reagent reservoirs, while the other half was subjected to two-fold serial dilution with sterile MH broth before being transferred into deep-well reagent reservoirs. The above steps were repeated, so that the drug concentrations in the reagent reservoirs were adjusted to 128, 64, 32, 16, 8, 4, 2, 1, 0.5, 0.25, 0.125 and 0.06 mg/L in sequence, and all solutions were prepared and used immediately. Several colonies were picked from agar plates cultured for 18-24 h and directly suspended in sterile normal saline, and the concentration of the bacterial suspension was adjusted to 0.5 McFarland units. The calibrated bacterial suspension was diluted with MH broth to a concentration of (4-8) × 10^5 colony-forming units per milliliter (CFU/mL) and prepared and used immediately. A volume of 100 µL of the aforementioned compounds of the present disclosure (e.g., the compounds prepared in the examples) and reference solutions at different concentrations was separately pipetted into wells 1 to 12 of sterile 96-well polystyrene plates, and an additional 100 µL of the aforementioned inoculum was added to each well. The final concentrations of the samples in the wells were adjusted to 64, 32, 16, 8, 4, 2, 1, 0.5, 0.25, 0.125, 0.06 and 0.03 mg/L, respectively, and the final concentration of the inoculum in each well was (2-4) × 10^5 CFU/mL. Additional growth control wells were set up, each containing 100 µL of the inoculum and 100 µL of sterile MH broth. The test substances and inocula in all wells were mixed thoroughly and then sealed. The inoculated 96-well plates were incubated in an incubator at 35-37°C for 16-20 h.
(§3) The strains used for the antibacterial activity assay were obtained from the American Type Culture Collection (ATCC) and clinical isolates.
(§4) The strains employed for the antibacterial activity assay included Escherichia coli ATCC BAA-2523, ATCC BAA-2340 (KPC), Klebsiella pneumoniae KPN+19-15, ATCC BAA-1705 (KPC), Pseudomonas aeruginosa PAE19-3, ATCC 27853, Acinetobacter baumannii ABA19-1, and NCTC 13304 (OXA-27).

[2] = tested on: Escherichia coli ATCC BAA-2523; settings: ATCC BAA-2523
Method: as §1, §2, §3, §4

[3] = tested on: Escherichia coli ATCC BAA-2340 (KPC); settings: ATCC BAA-2340
Method: as §1, §2, §3, §4

[4] = tested on: Acinetobacter baumannii ABA19-1; settings: ABA19-1
Method: as §1, §2, §3, §4

[5] = tested on: Klebsiella pneumoniae KPN+19-15; settings: KPN+19-15
Method: as §1, §2, §3, §4

[6] = tested on: Pseudomonas aeruginosa ATCC 27853; settings: ATCC 27853
Method: as §1, §2, §3, §4

[7] = tested on: Pseudomonas aeruginosa PAE19-3; settings: PAE19-3
Method: as §1, §2, §3, §4

[8] = tested on: Klebsiella pneumoniae ATCC BAA-1705 (KPC); settings: ATCC BAA-1705
Method: as §1, §2, §3, §4

[9] = Nephrotoxicity assay: in vitro cytotoxicity of HK-2 cells by CCK-8 assay; settings: human, HK-2 cells (human renal), 72 h incubation with drug-containing medium
Method: In vitro cytotoxicity detection of HK-2 cells was performed by the CCK-8 assay.
The culture medium for human renal HK-2 cells was a complete RPMI-1640 medium (Invitrogen) supplemented with 10% fetal bovine serum (FBS, Gibco). The cryopreservation solution was composed of 90% FBS and 10% dimethyl sulfoxide (DMSO), and the cells were preserved long-term in liquid nitrogen. Cells were cultured in a sterile incubator with a humidified atmosphere containing 5% CO2 at 37°C. When the cell density reached 70%-80%, cell digestion and subculture were conducted. The cyclic lipopeptide compounds prepared in Examples 1-120 were weighed and dissolved in sterile water to prepare a mother solution with a concentration of 1 mg/mL. Drug-containing culture media were then formulated, with the final concentrations set as 500, 250, 200, 100, 50, 25, and 12.5 µg/mL, respectively. Cells were adjusted to a density of 5 × 10^4 cells/mL and seeded into 96-well plates, with 100 µL of cell suspension added to each well. After stable incubation for 24 h, the original medium was replaced with the prepared drug-containing medium, and the plates were incubated in the incubator for an additional 72 h. The medium was gently aspirated, and 100 µL of blank medium containing 10% CCK-8 was added to each well. After incubation in the incubator for 3 h, the optical density (OD) values at 450 nm were measured using a BIOTEK microplate reader. The experiment was repeated three times. For each replicate, polymyxin B was set as the positive drug, and a drug-free blank group was established as the control. The cell viability (%) was calculated by the formula: Cell viability (%) = [(OD of drug-treated group - OD of zero-setting) / (OD of drug-free group - OD of zero-setting)] × 100%. The half-maximal inhibitory concentration (IC50) values were calculated through logarithmic regression analysis.
The cells used for the nephrotoxicity assay were obtained from the ATCC ( American Type Culture Collection). The Cell Counting Kit-8 (CCK-8) used in the assay was supplied by Beyotime Biotechnology Co., Ltd.

`CCCCCCCCC(=O)N[C@@H](CCN)C(=O)N[C@H](C(=O)N[C@H](CO)C(=O)N[C@H]1CCNC(=O)[C@H]([C@@H](C)O)NC(=O)[C@H](CCCN)NC(=O)[C@H](CCN)NC(=O)[C@H]([C@@H](C)O)NC(=O)[C@@H](Cc2ccccc2)NC(=O)[C@H](CCN)NC1=O)[C@@H](C)O` [Compound 90, Nonanoyl-Dab-Thr-D-Ser-ring(4-10)[Dab-Dab-D-Phe-Thr-Dab-Orn-Thr]] (Nonanoyl-[Dab]T[dS][Dab][Dab][dF]T[Dab][Orn]T; lactam 4-C) showed an MIC [1] of 0.03 µg/mL (≈ 0.0252 µM), an MIC [2] of 0.25 µg/mL (≈ 0.21 µM) and an MIC [3] of 0.25 µg/mL (≈ 0.21 µM). For the same compound, the MIC [4] was 0.06 µg/mL (≈ 0.0503 µM), the MIC [5] was 0.5 µg/mL (≈ 0.419 µM) and the MIC [6] was >64 µg/mL. The MIC [7] was 64 µg/mL (≈ 53.7 µM), the MIC [8] was 0.25 µg/mL (≈ 0.21 µM) and the IC50 at 72 h [9] was 320 ± 23.6 µg/mL (≈ 268 µM).

In the case of `CC[C@H](C)CCCCC(=O)N[C@@H](CCN)C(=O)N[C@H](C(=O)N[C@H](CCCN)C(=O)N[C@H]1CCNC(=O)[C@H]([C@@H](C)O)NC(=O)[C@H](CCN)NC(=O)[C@H](CCN)NC(=O)[C@H]([C@@H](C)O)NC(=O)[C@@H](Cc2ccccc2)NC(=O)[C@H](CCN)NC1=O)[C@@H](C)O` [Compound 21, (S)-6-methyloctanoyl-Dab-Thr-D-Orn-ring(4-10)[Dab-Dab-D-Phe-Thr-Dab-Dab-Thr]] (X1-[Dab]T[dOrn][Dab][Dab][dF]T[Dab][Dab]T; lactam 4-C), the MIC [1] is reported as 0.06 µg/mL (≈ 0.0498 µM), the MIC [2] is reported as ≤0.03 µg/mL and the MIC [3] is reported as ≤0.03 µg/mL. It also gave an MIC [4] of 0.125 µg/mL (≈ 0.104 µM), an MIC [5] of 0.125 µg/mL (≈ 0.104 µM) and an MIC [6] of 0.25 µg/mL (≈ 0.207 µM). The MIC [7] was 1 µg/mL (≈ 0.83 µM), the MIC [8] was 0.06 µg/mL (≈ 0.0498 µM) and the IC50 at 72 h [9] was > 500 µg/mL.

With `CC[C@H](C)CCCCC(=O)N[C@@H](CCN)C(=O)N[C@H](C(=O)N[C@@H](CCCN)C(=O)N[C@H]1CCNC(=O)[C@H]([C@@H](C)O)NC(=O)[C@H](CCN)NC(=O)[C@H](CCN)NC(=O)[C@H](CC(C)C)NC(=O)[C@@H](Cc2ccccc2)NC(=O)[C@H](CCN)NC1=O)[C@@H](C)O` [Compound 46, (S)-6-methyloctanoyl-Dab-Thr-Orn-ring(4-10)[Dab-Dab-D-Phe-Leu-Dab-Dab-Thr]] (X1-[Dab]T[Orn][Dab][Dab][dF]L[Dab][Dab]T; lactam 4-C) the MIC [1] was 0.06 µg/mL (≈ 0.0493 µM), the MIC [2] was 0.03 µg/mL (≈ 0.0246 µM) and the MIC [3] was 0.03 µg/mL (≈ 0.0246 µM). For the same compound, the MIC [4] was 0.125 µg/mL (≈ 0.103 µM), the MIC [5] was ≤0.03 µg/mL and the MIC [6] was ≤0.03 µg/mL. The MIC [7] was 0.25 µg/mL (≈ 0.205 µM), the MIC [8] was ≤0.03 µg/mL and the IC50 at 72 h [9] was 287 ± 10.7 µg/mL (≈ 236 µM).

Work on `CC(C)CCCCC(=O)N[C@@H](CCN)C(=O)N[C@H](C(=O)N[C@H](CO)C(=O)N[C@H]1CCNC(=O)[C@H]([C@@H](C)O)NC(=O)[C@H](CCN)NC(=O)[C@H](CCN)NC(=O)[C@H]([C@@H](C)O)NC(=O)[C@@H](Cc2ccc(CS(=O)(=O)O)cc2)NC(=O)[C@H](CCN)NC1=O)[C@@H](C)O` [Compound 107, 6-methylheptanoyl-Dab-Thr-D-Ser-ring(4-10)[Dab-Dab-D-Phe(4-CH2SO3H)-Thr-Dab-Dab-Thr]] ({Heptanoyl(6-Me)}-[Dab]T[dS][Dab][Dab][X3]T[Dab][Dab]T; lactam 4-C) yielded an MIC [1] of 0.06 µg/mL (≈ 0.0477 µM), an MIC [2] of 0.03 µg/mL (≈ 0.0238 µM) and an MIC [3] of 0.03 µg/mL (≈ 0.0238 µM). For the same compound, the MIC [4] was 0.06 µg/mL (≈ 0.0477 µM), the MIC [5] was 0.125 µg/mL (≈ 0.0993 µM) and the MIC [6] was 0.25 µg/mL (≈ 0.199 µM). For the same compound, the MIC [7] was 0.25 µg/mL (≈ 0.199 µM), the MIC [8] was 0.125 µg/mL (≈ 0.0993 µM) and the IC50 at 72 h [9] was > 500 µg/mL.

For `CCCCCCC(=O)N[C@@H](CCN)C(=O)N[C@H](C(=O)N[C@@H](CCCN)C(=O)N[C@H]1CCNC(=O)[C@H]([C@@H](C)O)NC(=O)[C@H](CCN)NC(=O)[C@H](CCN)NC(=O)[C@H](CC(C)C)NC(=O)[C@@H](Cc2ccccc2)NC(=O)[C@H](CCN)NC1=O)[C@@H](C)O` [Compound 49, Heptanoyl-Dab-Thr-Orn-ring(4-10)[Dab-Dab-D-Phe-Leu-Dab-Dab-Thr]] (Heptanoyl-[Dab]T[Orn][Dab][Dab][dF]L[Dab][Dab]T; lactam 4-C), the MIC [1] was 0.06 µg/mL (≈ 0.0504 µM), the MIC [2] was 0.03 µg/mL (≈ 0.0252 µM) and the MIC [3] was 0.03 µg/mL (≈ 0.0252 µM). For the same compound, the MIC [4] was 0.125 µg/mL (≈ 0.105 µM), the MIC [5] was 0.03 µg/mL (≈ 0.0252 µM) and the MIC [6] was 0.03 µg/mL (≈ 0.0252 µM). The MIC [7] was 0.5 µg/mL (≈ 0.42 µM), the MIC [8] was 0.03 µg/mL (≈ 0.0252 µM) and the IC50 at 72 h [9] was 367 ± 8.7 µg/mL (≈ 309 µM).

Source: patent publication EP4725957A1, “GROUP OF CYCLIC ALKALINE LIPOPEPTIDE COMPOUNDS, AND PREPARATION METHOD THEREFOR AND USE THEREOF” (Institute of Medicinal Biotechnology, Chinese Academy of …, priority 2023, dated 2024)
